# Data reported in patent US20230276835A1, “SAVORY TASTE ENHANCEMENT VIA TRANSMEMBRANE REGION BINDING” (Firmenich Incorporated, priority 2020, published 2023).
# Tests used:
# [1] = Sensory testing: paired choice of greater umami taste; format: in vivo, human; settings: 16 mM MSG solution vs 4 ppm S807 solution, 32 selections; for number of selections favoring the solution as having greater umami taste: 16 panelists, 2 reps
# Description: Of the 32 selections, 19 favored the MSG solution and 13 favored the S807 solution.
# T1R1/T1R3 = biological target: T1, T1R1/T1R3 (Homo sapiens, UniProt Q7RTX1); assay: T1R1/T1R3 assay (cells expressing hT1R1 in the presence of hT1R3); format: cell-based
# T1 construct: expressed in transfected cells
# T1 sequence (Q7RTX1 21-841): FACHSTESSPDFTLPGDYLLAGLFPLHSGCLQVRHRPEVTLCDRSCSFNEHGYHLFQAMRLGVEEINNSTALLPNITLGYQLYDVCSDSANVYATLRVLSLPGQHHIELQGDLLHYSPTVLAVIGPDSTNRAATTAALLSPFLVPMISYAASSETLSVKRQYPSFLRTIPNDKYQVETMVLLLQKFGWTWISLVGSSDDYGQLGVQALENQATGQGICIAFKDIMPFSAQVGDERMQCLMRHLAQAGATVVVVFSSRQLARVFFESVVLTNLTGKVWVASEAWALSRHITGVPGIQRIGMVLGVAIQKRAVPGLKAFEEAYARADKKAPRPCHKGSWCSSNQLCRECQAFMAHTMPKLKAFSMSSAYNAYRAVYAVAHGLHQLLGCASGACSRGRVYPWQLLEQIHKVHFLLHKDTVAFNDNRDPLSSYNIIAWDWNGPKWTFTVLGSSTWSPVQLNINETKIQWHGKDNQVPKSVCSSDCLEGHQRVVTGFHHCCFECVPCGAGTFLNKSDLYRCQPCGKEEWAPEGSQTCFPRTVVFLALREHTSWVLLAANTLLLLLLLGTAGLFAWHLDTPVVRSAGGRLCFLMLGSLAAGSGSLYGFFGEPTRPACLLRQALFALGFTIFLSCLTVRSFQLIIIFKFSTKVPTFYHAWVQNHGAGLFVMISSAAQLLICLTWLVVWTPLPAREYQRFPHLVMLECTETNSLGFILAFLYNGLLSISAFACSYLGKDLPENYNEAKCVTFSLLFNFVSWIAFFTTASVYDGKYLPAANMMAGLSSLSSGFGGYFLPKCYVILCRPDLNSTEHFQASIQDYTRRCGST
# T1 sequence (Q7RTX0 21-852 C757R partner): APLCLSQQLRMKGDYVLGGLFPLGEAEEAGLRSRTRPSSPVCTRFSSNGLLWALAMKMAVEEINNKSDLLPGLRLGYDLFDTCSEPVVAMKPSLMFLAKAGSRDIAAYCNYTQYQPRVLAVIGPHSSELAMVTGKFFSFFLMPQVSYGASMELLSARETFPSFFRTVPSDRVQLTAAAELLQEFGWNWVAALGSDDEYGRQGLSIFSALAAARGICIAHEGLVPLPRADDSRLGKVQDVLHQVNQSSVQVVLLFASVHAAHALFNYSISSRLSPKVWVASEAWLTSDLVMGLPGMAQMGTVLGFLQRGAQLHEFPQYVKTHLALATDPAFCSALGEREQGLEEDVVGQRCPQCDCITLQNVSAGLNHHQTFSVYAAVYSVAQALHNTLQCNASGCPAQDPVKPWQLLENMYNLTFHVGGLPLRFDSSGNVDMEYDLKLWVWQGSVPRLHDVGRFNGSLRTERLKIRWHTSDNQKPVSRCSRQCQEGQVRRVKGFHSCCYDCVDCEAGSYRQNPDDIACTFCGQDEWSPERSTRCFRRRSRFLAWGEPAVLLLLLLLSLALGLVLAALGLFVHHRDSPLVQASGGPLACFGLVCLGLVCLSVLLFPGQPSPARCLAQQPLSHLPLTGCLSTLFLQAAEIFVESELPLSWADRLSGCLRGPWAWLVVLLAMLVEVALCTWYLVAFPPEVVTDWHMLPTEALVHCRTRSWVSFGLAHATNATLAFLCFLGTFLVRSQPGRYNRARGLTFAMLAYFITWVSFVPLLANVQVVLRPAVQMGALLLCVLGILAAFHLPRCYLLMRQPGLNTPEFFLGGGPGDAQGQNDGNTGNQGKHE
# Description: To implement the identification of hT1R1-TMD modulators, cells transiently or stably expressing hT1R1 (T1R1) in the presence of hT1R3 (T1R3) are stimulated with library compounds. Similarly, the same compounds are screened in a GTPγS binding assay utilizing membranes expressing transmembrane domain (TMD) of hT1R1 as described in Zhang et al., Proc. Nat'l Acad. Sci., vol. 105, pp. 20930-20934 (2008). Compounds active exclusively active in the two assays are then prioritized and evaluated in sensory for the detection of an umami note on their own and synergy in the presence of MSG or MSG+IMP.
# The compound N-(heptan-4-yl)-benzo[d][1,3]dioxole-5-carboxamide (S807) was used as a test compound in a T1R1/T1R3 assay, both alone and in the presence of monosodium glutamate (MSG).
# In a similar way, the T1R1/T1R3 assay was used to measure the activity of monosodium glutamate (MSG), inosine 5′monophosphate (IMP), S807, MSG+IMP, 5807+MSG, 5807+IMP, and 5807+MSG+IMP.
SMILES,number of selections favoring the solution as having greater umami taste [1],preference for MSG versus S807 (umami taste) [1],"agonist activity on T1R1/T1R3 (T1R1/T1R3; S807 alone, FIG. 2)","enhancement of the MSG effect on T1R1/T1R3 (T1R1/T1R3; in the presence of MSG, FIG. 2)","effect in combination with MSG (percent activity, FIG. 3) (T1R1/T1R3; with MSG)","effect in combination with MSG and IMP (percent activity, FIG. 3) (T1R1/T1R3; with the combination of MSG and IMP)"
"N[C@@H](CCC(=O)O)C(=O)[O-].[Na+] [MSG, monosodium glutamate, reference compound]",19,,,,,
"CCCC(CCC)NC(=O)c1ccc2c(c1)OCO2 [S807, N-(heptan-4-yl)-benzo[d][1,3]dioxole-5-carboxamide]",13,no statistically significant preference,agonist activity,enhancement properties on the MSG effect,synergistic effect,synergistic effect
